Results published in patent US7863416B2, “Nociceptin-based analgesics” (Synvax, Inc., priority 2001, dated 2011).
Numbered stars: 1 amine (or outer) side, 2 acyl side, 3 side chain; on linkers, the order of the positions; unused ones are H or OH. Square brackets hold non-standard residues; d marks the D form. Peptide text beside a SMILES is read from it. * marks the point of attachment. ξ: configuration not given here. Phe(4-NO2) = N[C@@H](Cc1ccc([N+](=O)[O-])cc1)C(=O)O; Trp(5-CN) = N#Cc1ccc2[nH]cc(C[C@H](N)C(=O)O)c2c1; Phe(4-COOH) = N[C@@H](Cc1ccc(C(=O)O)cc1)C(=O)O; Phe(4-CN) = N#Cc1ccc(C[C@H](N)C(=O)O)cc1; Phe(4-F) = N[C@@H](Cc1ccc(F)cc1)C(=O)O; Phe(4-Me) = Cc1ccc(C[C@H](N)C(=O)O)cc1; hPhe = N[C@@H](CCc1ccccc1)C(=O)O; ξNip = O=C(C1CCCN([*:1])C1)[*:2]; ξβ2hAla = CC(CN[*:1])C(=O)[*:2]; Phg = N[C@H](C(=O)O)c1ccccc1; Ac6c = NC1(C(=O)O)CCCCC1; Heptanoyl = CCCCCCC(=O)*; Propionyl = CCC(=O)*; Butyryl = CCCC(=O)*

What was measured:
human ORL1 [1] = molecular target: T1, human ORL1 (Homo sapiens, UniProt P41146); experiment: Stimulation of [35S]GTPγS binding in membranes of CHO cells transfected with human ORL-1; format: biochemical; details: for [35S]GTPγS Binding Percent Stimulation: Table 1, relative to nociceptin; for agonist/antagonist character at ORL1: in words; for EC50 ± SEM, stimulation of [35S]GTPγS binding: Table 6; for Emax: read-out: % Stimulation ± SEM of [35S]GTPγS binding
T1 construct: expressed in transfected cells; host or cells: CHO cells (G418-selected)
Method: First, CHO cells transfected with human ORL-1 are scraped from tissue culture dishes into 20 mM HEPES, 1 mM EDTA, and then centrifuged at 500×g for 10 minutes. The cells are then re-suspended in this buffer and homogenized using a Polytron Homogenizer.
The cellular homogenate is next centrifuged at 20,000×g for 20 minutes. Following this, the resulting pellet is re-suspended in a buffer containing 20 mM HEPES, 10 mM MgCl2, and 100 mM NaCl, having a resulting pH of 7.4. The suspension is then re-centrifuged at 20,000×g and suspended once more in the above-listed buffer. The pellet may be frozen at −70° C. prior to the final centrifugation. For the binding assay, membranes (10-20 μg protein) are incubated with [^35S]GTPγγS (50 pM), GDP (usually 10 μM), and the desired compound. The total volume of the mixture is 1 ml, which is incubated for 60 min at 25° C.
Following incubation, samples are filtered over glass fiber filters and counted. […]
In these [^35S]GTPγS assays, binding was conducted as described above. EC50 values and percent stimulation were determined using the program Prism.

human ORL1 [2] = molecular target: T1, human ORL1; experiment: [3H]nociceptin binding to membranes of CHO cells transfected with human ORL1; details: for Hill Coefficient: Table 5

T1 sequence (P41146 whole entry): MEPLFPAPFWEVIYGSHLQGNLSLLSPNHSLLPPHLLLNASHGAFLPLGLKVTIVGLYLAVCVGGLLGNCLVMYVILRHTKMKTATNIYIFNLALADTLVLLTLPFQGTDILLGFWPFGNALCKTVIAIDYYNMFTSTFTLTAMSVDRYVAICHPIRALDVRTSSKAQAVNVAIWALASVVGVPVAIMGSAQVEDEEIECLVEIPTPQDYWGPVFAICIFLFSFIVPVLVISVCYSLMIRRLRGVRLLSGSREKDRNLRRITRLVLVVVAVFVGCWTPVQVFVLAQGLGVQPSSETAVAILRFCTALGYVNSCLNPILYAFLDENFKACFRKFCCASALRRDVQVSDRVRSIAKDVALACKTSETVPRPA

Compound	Hill Coefficient (human ORL1 [2])	Emax (human ORL1 [1]) [%]	further results
CCCC(=O)N[C@@H](CCCNC(=N)N)C(=O)N[C@@H](Cc1ccc(O)cc1)C(=O)N[C@@H](Cc1ccc(O)cc1)C(=O)N[C@@H](CCCNC(=N)N)C(=O)N[C@@H](Cc1c[nH]c2ccccc12)C(=O)N[C@@H](CCCNC(=N)N)C(N)=O [IV-15-A, Butryl-RYYRWR-NH2] (Butyryl-RYYRWR-NH2)			[35S]GTPγS Binding Percent Stimulation (human ORL1 [1]): 63%
CCC(=O)N[C@@H](CCCNC(=N)N)C(=O)N[C@@H](Cc1ccc(O)cc1)C(=O)N[C@@H](Cc1ccc(O)cc1)C(=O)N[C@@H](CCCNC(=N)N)C(=O)N[C@@H](Cc1c[nH]c2ccccc12)C(=O)N[C@@H](CCCNC(=N)N)C(N)=O [IV-16-C, Propionyl-RYYRWR-NH2] (Propionyl-RYYRWR-NH2)			IC50 (human ORL1 [2]): 1.2 nM; [35S]GTPγS Binding Percent Stimulation (human ORL1 [1]): 82%; agonist/antagonist character at ORL1 (human ORL1 [1]): nearly full agonist
CCCCCCC(=O)N[C@@H](CCCNC(=N)N)C(=O)N[C@@H](Cc1ccc(O)cc1)C(=O)N[C@@H](Cc1ccc(O)cc1)C(=O)N[C@@H](CCCNC(=N)N)C(=O)N[C@@H](Cc1c[nH]c2ccccc12)C(=O)N[C@@H](CCCNC(=N)N)C(N)=O [IV-18-C, Heptanoyl-RYYRWR-NH2] (Heptanoyl-RYYRWR-NH2)			IC50 (human ORL1 [2]): 2.6 nM; [35S]GTPγS Binding Percent Stimulation (human ORL1 [1]): 54%
N=C(N)NCCC[C@H](NC(=O)[C@H](Cc1c[nH]c2ccccc12)NC(=O)[C@H](CCCNC(=N)N)NC(=O)[C@H](Cc1ccc(O)cc1)NC(=O)[C@H](Cc1ccc(O)cc1)NC(=O)[C@H](CCCNC(=N)N)NC(=O)C1CCCNC1)C(N)=O (stereo partly drawn) [VII-1-A, Nipacotyl-Arg-Tyr-Tyr-Arg-Trp-Arg-NH2] (ξNip-RYYRWR-NH2)	0.97	< 20	EC50 ± SEM, stimulation of [35S]GTPγS binding (human ORL1 [1]): FLAT
CC(CN)C(=O)N[C@@H](CCCNC(=N)N)C(=O)N[C@@H](Cc1ccc(O)cc1)C(=O)N[C@@H](Cc1ccc(O)cc1)C(=O)N[C@@H](CCCNC(=N)N)C(=O)N[C@@H](Cc1c[nH]c2ccccc12)C(=O)N[C@@H](CCCNC(=N)N)C(N)=O (stereo partly drawn) [VII-3-A, β-aminoisobutryl-Arg-Tyr-Tyr-Arg-Trp-Arg-NH2] (ξβ2hAla-RYYRWR-NH2)	0.72	29.1 ± 1.9	
N=C(N)NCCC[C@H](NC(=O)[C@H](Cc1c[nH]c2ccccc12)NC(=O)[C@H](CCCNC(=N)N)NC(=O)[C@H](Cc1ccc(O)cc1)NC(=O)[C@H](Cc1ccc(O)cc1)NC(=O)[C@H](CCCNC(=N)N)NC(=O)C1(N)CCCCC1)C(N)=O [VII-4-B, 1-aminocyclohexanoyl-Arg-Tyr-Tyr-Arg-Trp-Arg-NH2] (H-[Ac6c]RYYRWR-NH2)	1.0	< 20	EC50 ± SEM, stimulation of [35S]GTPγS binding (human ORL1 [1]): FLAT
CC(=O)N[C@@H](CCCNC(=N)N)C(=O)N[C@H](C(=O)N[C@H](C(=O)N[C@@H](CCCNC(=N)N)C(=O)N[C@@H](Cc1c[nH]c2ccccc12)C(=O)N[C@@H](CCCNC(=N)N)C(N)=O)c1ccccc1)c1ccccc1 [VII-11-B, Ac-Arg-Phg-Phg-Arg-Trp-Arg-NH2] (Ac-R[Phg][Phg]RWR-NH2)	0.93		
CC(=O)N[C@@H](CCCNC(=N)N)C(=O)N[C@@H](Cc1ccc(O)cc1)C(=O)N[C@H](C(=O)N[C@@H](CCCNC(=N)N)C(=O)N[C@@H](Cc1c[nH]c2ccccc12)C(=O)N[C@@H](CCCNC(=N)N)C(N)=O)c1ccccc1 [VII-13-B, Ac-Arg-Tyr-Phg-Arg-Trp-Arg-NH2] (Ac-RY[Phg]RWR-NH2)	0.73		
CC(=O)N[C@@H](CCCNC(=N)N)C(=O)N[C@@H](Cc1ccc(C)cc1)C(=O)N[C@@H](Cc1ccc(O)cc1)C(=O)N[C@@H](CCCNC(=N)N)C(=O)N[C@@H](Cc1c[nH]c2ccccc12)C(=O)N[C@@H](CCCNC(=N)N)C(N)=O [VII-15-B, Ac-Arg-Phe(4-Me)-Tyr-Arg-Trp-Arg-NH2] (Ac-R[Phe(4-Me)]YRWR-NH2)	0.79	59.8 ± 16.2	
CC(=O)N[C@@H](CCCNC(=N)N)C(=O)N[C@@H](Cc1ccc(C)cc1)C(=O)N[C@@H](Cc1ccc(C)cc1)C(=O)N[C@@H](CCCNC(=N)N)C(=O)N[C@@H](Cc1c[nH]c2ccccc12)C(=O)N[C@@H](CCCNC(=N)N)C(N)=O [VII-17-B, Ac-Arg-Phe(4-Me)-Phe(4-Me)-Arg-Trp-Arg-NH2] (Ac-R[Phe(4-Me)][Phe(4-Me)]RWR-NH2)	1.06	< 20	EC50 ± SEM, stimulation of [35S]GTPγS binding (human ORL1 [1]): FLAT
CC(=O)N[C@@H](CCCNC(=N)N)C(=O)N[C@@H](Cc1ccc(C(=O)O)cc1)C(=O)N[C@@H](Cc1ccc(O)cc1)C(=O)N[C@@H](CCCNC(=N)N)C(=O)N[C@@H](Cc1c[nH]c2ccccc12)C(=O)N[C@@H](CCCNC(=N)N)C(N)=O [VII-19-B, Ac-Arg-Phe(4-COOH)-Tyr-Arg-Trp-Arg-NH2] (Ac-R[Phe(4-COOH)]YRWR-NH2)	1.0	45.5 ± 8	
CC(=O)N[C@@H](CCCNC(=N)N)C(=O)N[C@@H](Cc1ccc([N+](=O)[O-])cc1)C(=O)N[C@@H](Cc1ccc(O)cc1)C(=O)N[C@@H](CCCNC(=N)N)C(=O)N[C@@H](Cc1c[nH]c2ccccc12)C(=O)N[C@@H](CCCNC(=N)N)C(N)=O [VII-23-B, Ac-Arg-Phe(NO2)-Tyr-Arg-Trp-Arg-NH2] (Ac-R[Phe(4-NO2)]YRWR-NH2)	0.74	56.6 ± 20.4	
CC(=O)N[C@@H](CCCNC(=N)N)C(=O)N[C@@H](Cc1ccc(F)cc1)C(=O)N[C@@H](Cc1ccc(O)cc1)C(=O)N[C@@H](CCCNC(=N)N)C(=O)N[C@@H](Cc1c[nH]c2ccccc12)C(=O)N[C@@H](CCCNC(=N)N)C(N)=O [VII-31-B, Ac-Arg-Phe(4-F)-Tyr-Arg-Trp-Arg-NH2] (Ac-R[Phe(4-F)]YRWR-NH2)	0.81	54.4 ± 1.2	
CC(=O)N[C@@H](CCCNC(=N)N)C(=O)N[C@@H](Cc1ccc(F)cc1)C(=O)N[C@@H](Cc1ccc(F)cc1)C(=O)N[C@@H](CCCNC(=N)N)C(=O)N[C@@H](Cc1c[nH]c2ccccc12)C(=O)N[C@@H](CCCNC(=N)N)C(N)=O [VII-33-B, Ac-Arg-Phe(4-F)-Phe(4-F)-Arg-Trp-Arg-NH2] (Ac-R[Phe(4-F)][Phe(4-F)]RWR-NH2)	0.89	< 20	EC50 ± SEM, stimulation of [35S]GTPγS binding (human ORL1 [1]): FLAT
COc1ccc(C[C@H](NC(=O)[C@H](CCCNC(=N)N)NC(C)=O)C(=O)N[C@@H](Cc2ccc(O)cc2)C(=O)N[C@@H](CCCNC(=N)N)C(=O)N[C@@H](Cc2c[nH]c3ccccc23)C(=O)N[C@@H](CCCNC(=N)N)C(N)=O)cc1 [VII-35-C, Ac-Arg-Tyr(4-Me)-Tyr-Arg-Trp-Arg-NH2] (Ac-RY(Me)YRWR-NH2)	0.75	52.1 ± 0.6	
COc1ccc(C[C@H](NC(=O)[C@H](CCCNC(=N)N)NC(C)=O)C(=O)N[C@@H](Cc2ccc(OC)cc2)C(=O)N[C@@H](CCCNC(=N)N)C(=O)N[C@@H](Cc2c[nH]c3ccccc23)C(=O)N[C@@H](CCCNC(=N)N)C(N)=O)cc1 [VII-37-B, Ac-Arg-Tyr(4-Me)-Tyr(4-Me)-Arg-Trp-Arg-NH2] (Ac-RY(Me)Y(Me)RWR-NH2)	0.82	< 20	EC50 ± SEM, stimulation of [35S]GTPγS binding (human ORL1 [1]): FLAT
CC(=O)N[C@@H](CCCNC(=N)N)C(=O)N[C@@H](Cc1ccc(C#N)cc1)C(=O)N[C@@H](Cc1ccc(O)cc1)C(=O)N[C@@H](CCCNC(=N)N)C(=O)N[C@@H](Cc1c[nH]c2ccccc12)C(=O)N[C@@H](CCCNC(=N)N)C(N)=O [VII-43-C, Ac-Arg-Phe(4-CN)-Tyr-Arg-Trp-Arg-NH2] (Ac-R[Phe(4-CN)]YRWR-NH2)	0.73	49.7 ± 6.6	agonist/antagonist character at ORL1 (human ORL1 [1]): partial agonist
CC(=O)N[C@@H](CCCNC(=N)N)C(=O)N[C@@H](CCc1ccccc1)C(=O)N[C@@H](CCc1ccccc1)C(=O)N[C@@H](CCCNC(=N)N)C(=O)N[C@@H](Cc1c[nH]c2ccccc12)C(=O)N[C@@H](CCCNC(=N)N)C(N)=O [VII-49-B, Ac-Arg-hPhe-hPhe-Arg-Trp-Arg-NH2] (Ac-R[hPhe][hPhe]RWR-NH2)	0.94	< 20	EC50 ± SEM, stimulation of [35S]GTPγS binding (human ORL1 [1]): FLAT
CC(=O)N[C@@H](CCCNC(=N)N)C(=O)N[C@@H](Cc1ccc(O)cc1)C(=O)N[C@@H](Cc1ccc(O)cc1)C(=O)N[C@@H](CCCNC(=N)N)C(=O)N[C@@H](Cc1c[nH]c2ccc(C#N)cc12)C(=O)N[C@@H](CCCNC(=N)N)C(N)=O [VII-51-A, Ac-Arg-Tyr-Tyr-Arg-Trp(5-CN)-Arg-NH2] (Ac-RYYR[Trp(5-CN)]R-NH2)	0.7	49.1 ± 0.19	Ki (human ORL1 [2]): 0.3 ± 0.133 nM
Ac-Arg-Phe(SO3H)-Tyr-Arg-Trp-Arg-NH2 (Ac-R[Phe(SO3H)]YRWR-NH2) [VII-27-B]	1.12		
Ac-RYYRWR-NH2 [Ac-RYYRWR-NH2] [listing 1 of 2 here]			EC50 (human ORL1 [1]): 1.2 nM
Ac-RYYRWR-NH2 [Ac-RYYRWR-NH2] [listing 2 of 2 here]			[35S]GTPγS Binding Percent Stimulation (human ORL1 [1]): 100%
